Measurements as given in ChEMBL document CHEMBL1201862, “PubChem BioAssay data set” (2004).
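A five-concentration, 48-hour dose response in 96-well plates underlies each endpoint, interpolated linearly between surrounding concentrations. GI50: concentration for 50% inhibition of growth.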 Calls of active or inactive are those of the source. No stated cut-off is given here; in the data, active = GI50 up to about 1.1 µM and inactive = higher.

Experiments:
Experiment in all cases: growth of human tumour cells (NCI), 48 h
MDA-N = test system: MDA-N
HOP-92 = test system: HOP-92
A549 = test system: A549
M14 = test system: M14
NCI-H226 = test system: NCI-H226
HL-60 = test system: HL-60
MDA-MB-231 = test system: MDA-MB-231
OVCAR-4 = test system: OVCAR-4
UO-31 = test system: UO-31
RPMI-8226 = test system: RPMI-8226
PC-3 = test system: PC-3
COLO 205 = test system: COLO 205
786-0 = test system: 786-0
MDA-MB-435 = test system: MDA-MB-435
SK-OV-3 = test system: SK-OV-3
NCI/ADR-RES = test system: NCI/ADR-RES
UACC-257 = test system: UACC-257
MOLT-4 = test system: MOLT-4
K562 = test system: K562
Malme-3M = test system: Malme-3M

Structure (SMILES)	GI50 (MDA-N)	GI50 (HOP-92)	GI50 (A549)	GI50 (M14)	GI50 (NCI-H226)	GI50 (HL-60)	GI50 (MDA-MB-231)	GI50 (OVCAR-4)	GI50 (UO-31)	GI50 (RPMI-8226)	GI50 (PC-3)	GI50 (COLO 205)	GI50 (786-0)	GI50 (MDA-MB-435)	GI50 (SK-OV-3)	GI50 (NCI/ADR-RES)	GI50 (UACC-257)	GI50 (MOLT-4)	GI50 (K562)	GI50 (Malme-3M)
O=C(CCC(=O)c1ccc(Cl)cc1)NO	> 100 µM (inactive)	> 100 µM (inactive)	> 100 µM (inactive)	> 100 µM (inactive)	> 100 µM (inactive)	> 100 µM (inactive)	> 100 µM (inactive)	> 100 µM (inactive)	> 100 µM (inactive)	> 100 µM (inactive)	> 100 µM (inactive)	> 100 µM (inactive)	> 100 µM (inactive)	> 100 µM (inactive)	> 100 µM (inactive)	> 100 µM (inactive)	> 100 µM (inactive)	> 100 µM (inactive)	> 100 µM (inactive)	
COc1cc2c(/C=C3/C(=O)Nc4ccccc43)c(Cl)[nH]c2cc1C	0.0191 µM (active)	1.43 µM (inactive)	0.0619 µM (active)	0.0366 µM (active)	0.373 µM (active)	0.035 µM (active)	0.0893 µM (active)	0.0521 µM (active)	0.0745 µM (active)	0.0551 µM (active)	0.0435 µM (active)	0.0552 µM (active)	0.0605 µM (active)	0.0141 µM (active)	0.0314 µM (active)	0.0263 µM (active)	1.52 µM (inactive)	0.118 µM (active)	0.0601 µM (active)	
CCSSCS(C)(=O)=O	10.5 µM (inactive)	16.9 µM (inactive)	36.7 µM (inactive)	20.4 µM (inactive)	29.8 µM (inactive)	11.9 µM (inactive)	89.1 µM (inactive)	17.8 µM (inactive)	11 µM (inactive)		40 µM (inactive)	6.4 µM (inactive)	5.82 µM (inactive)	22.6 µM (inactive)	56.6 µM (inactive)	31.8 µM (inactive)	21.3 µM (inactive)	0.975 µM (active)	3.88 µM (inactive)	77.3 µM (inactive)
COc1cc(C2SCC(=O)N2c2ccccn2)cc(OC)c1OC (configuration not stated)	19 µM (inactive)	14.2 µM (inactive)	> 100 µM (inactive)	> 100 µM (inactive)	> 100 µM (inactive)	58.7 µM (inactive)	> 100 µM (inactive)	> 100 µM (inactive)	> 100 µM (inactive)	91 µM (inactive)	> 100 µM (inactive)	> 100 µM (inactive)	> 100 µM (inactive)	27 µM (inactive)	> 100 µM (inactive)	39.6 µM (inactive)	49.8 µM (inactive)	> 100 µM (inactive)	48.4 µM (inactive)	
Cc1ccc(O)c(-c2cc(-c3cccc(Br)c3)on2)c1	25.6 µM (inactive)	22.2 µM (inactive)	29.4 µM (inactive)	36.8 µM (inactive)		27 µM (inactive)	30.1 µM (inactive)	11.6 µM (inactive)	70.3 µM (inactive)	25.2 µM (inactive)	45.6 µM (inactive)	18.2 µM (inactive)	40.4 µM (inactive)	21.7 µM (inactive)	21.3 µM (inactive)	31.8 µM (inactive)	48.8 µM (inactive)	20.8 µM (inactive)	29.6 µM (inactive)	32.6 µM (inactive)
CC1=NN(C(=O)CC(=O)Nc2ccccc2C)C(=O)C1/N=N/c1ccc(C(=O)O)cc1 (configuration not stated)	> 100 µM (inactive)	20.5 µM (inactive)	> 100 µM (inactive)	> 100 µM (inactive)		> 100 µM (inactive)	> 100 µM (inactive)	> 100 µM (inactive)	48.6 µM (inactive)	> 100 µM (inactive)	> 100 µM (inactive)	> 100 µM (inactive)	> 100 µM (inactive)	> 100 µM (inactive)		> 100 µM (inactive)	> 100 µM (inactive)	88.1 µM (inactive)	> 100 µM (inactive)	> 100 µM (inactive)
Cc1c(S(=O)(=O)N/C(=N\O)Nc2ccc(Cl)cc2)sc2ccc(Cl)cc12	18.2 µM (inactive)	14.6 µM (inactive)	16.4 µM (inactive)	16.9 µM (inactive)	17.7 µM (inactive)	19.3 µM (inactive)	20.1 µM (inactive)	16.9 µM (inactive)	35.8 µM (inactive)		17.1 µM (inactive)	15.9 µM (inactive)	17.5 µM (inactive)	16.3 µM (inactive)	15.6 µM (inactive)	18 µM (inactive)	16.4 µM (inactive)	27.2 µM (inactive)	31 µM (inactive)	18.5 µM (inactive)
